Positions of bridges follow the written chain, without caps; N, C: chain ends. Non-standard residues stand in square brackets, D forms with d. Residues, ends and D or L forms follow the SMILES beside them. Phe(4-OC2H4NH2,2,3-(CH2)3) = NCCOc1ccc(C[C@H](N)C(=O)O)c2c1CCC2; Trp(7-cPr) = N[C@@H](Cc1c[nH]c2c(C3CC3)cccc12)C(=O)O; Trp(7-Me) = Cc1cccc2c(C[C@H](N)C(=O)O)c[nH]c12; 2Nal = N[C@@H](Cc1ccc2ccccc2c1)C(=O)O; Thp(SO2) = NC1(C(=O)O)CCS(=O)(=O)CC1; AEF = NCCOc1ccc(C[C@H](N)C(=O)O)cc1; 3Pal = N[C@@H](Cc1cccnc1)C(=O)O; Cit = NC(=O)NCCC[C@H](N)C(=O)O; Pen = CC(C)(S)[C@H](N)C(=O)O; Dab = NCC[C@H](N)C(=O)O; Thp = NC1(C(=O)O)CCOCC1; Sar = CNCC(=O)O

Experiment [1] concerns the target T1, IL-23α/IL-12β and IL-23R (Homo sapiens, UniProt Q5VWK5).
T1 construct: purchased ACRO ILR-H82F3 (IL-23R); ILB-H52W5 (IL-23α/IL-12β)
T1 sequence (Q5VWK5 24-353 limits assumed): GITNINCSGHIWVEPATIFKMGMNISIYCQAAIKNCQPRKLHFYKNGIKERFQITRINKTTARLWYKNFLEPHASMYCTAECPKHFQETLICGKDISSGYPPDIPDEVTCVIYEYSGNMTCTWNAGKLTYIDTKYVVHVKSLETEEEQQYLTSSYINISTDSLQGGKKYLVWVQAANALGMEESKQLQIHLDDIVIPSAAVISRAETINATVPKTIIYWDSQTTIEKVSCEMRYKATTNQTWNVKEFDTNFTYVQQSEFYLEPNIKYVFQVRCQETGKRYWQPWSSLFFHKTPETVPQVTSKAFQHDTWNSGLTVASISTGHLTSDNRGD
Briefly: IL-23α/IL-12β and IL-23R binding assay (TR-FRET/HTRF). The settings on record: inhibition of the binding of IL-23α/IL-12β to IL-23R, TR-FRET; both proteins 0.3 nM. An outline of the steps: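 TR-FRET with IL-23α/IL-12β and IL-23R each at 0.3 nM in PPI buffer; compound preincubated with IL-23α/IL-12β 60 min at 25°C, then IL-23R and Tb/d2 detection reagents added for 60 min. HTRF 665/620 ratio; IC50 by nonlinear regression.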

The target in experiment [2] is (Homo sapiens, UniProt Q5VWK5). Briefly: IL-23-stimulated pSTAT3 detection assay in PBMCs (ELISA). Type of experiment: cell-based. The note with it: rhIL23 stimulation 30 minutes, read-out: pSTAT3 inhibition/IC50. As to the method: 3. IL-23-stimulated pSTAT3 detection assay in PBMCs
Cryopreserved human PBMCs were thawed, and seeded onto a plate previously covered with an anti-CD3 antibody at 1 × 10^6 cells/well. Then, an anti-CD28 antibody was added to the plate, and the cells were incubated at 37°C with 5% CO2 for 5 days. On Day 5, the cells were seeded onto a 96-well plate at a density of 100K cells/well after 4 hours of stimulation by FBS starvation. The diluted Compound was transferred into the 96-well cell culture plate, and the plate was incubated at 37°C with 5% CO2 for 1 hour. rhIL23 (R&D, 1290-IL) was added to the cell culture plate, and the plate was incubated at 37°C with 5% CO2 for 30 minutes. The cells in the wells were lysed on ice with a lysis buffer containing 1× PHOSstop solution for 30 minutes, and the plate was centrifuged at 1000 rpm for 1 minute. Then, the supernatant was transferred into a 96-well ELISA plate, and pSTAT3 ELISA assay was performed according to the instructions of the kit (CST, 7300CA). Absorbance values at […] were read on PHERAstar FSX (BMG LRBTECH). The inhibition rate of the compounds was assessed using the following formula, and IC50 values were obtained by fitting with Graphpad.
(§1) Calculation formula of inhibition rate: [formula] • where Data negative: mean of DMSO control group; and • Data positive: mean of non-IL23-stimulated group
The calculation formula of IC50 was as follows: Y = Bottom + (Top−Bottom)/(1+10^(∧)((LogIC50−X)*HillSlope)) [formula] • where X: concentration of compound; and • Y: inhibition rate of compound. Table 3. pSTAT3 inhibition
(In general: An ELISA detects its analyte on a solid surface through an enzyme-linked reagent.)

Experiment [3] has as its target T2, IL-23R (Homo sapiens, UniProt Q5VWK5).
T2 construct: host or cells: HEK-blue IL23 reporter gene cell line
T2 sequence (Q5VWK5 24-629): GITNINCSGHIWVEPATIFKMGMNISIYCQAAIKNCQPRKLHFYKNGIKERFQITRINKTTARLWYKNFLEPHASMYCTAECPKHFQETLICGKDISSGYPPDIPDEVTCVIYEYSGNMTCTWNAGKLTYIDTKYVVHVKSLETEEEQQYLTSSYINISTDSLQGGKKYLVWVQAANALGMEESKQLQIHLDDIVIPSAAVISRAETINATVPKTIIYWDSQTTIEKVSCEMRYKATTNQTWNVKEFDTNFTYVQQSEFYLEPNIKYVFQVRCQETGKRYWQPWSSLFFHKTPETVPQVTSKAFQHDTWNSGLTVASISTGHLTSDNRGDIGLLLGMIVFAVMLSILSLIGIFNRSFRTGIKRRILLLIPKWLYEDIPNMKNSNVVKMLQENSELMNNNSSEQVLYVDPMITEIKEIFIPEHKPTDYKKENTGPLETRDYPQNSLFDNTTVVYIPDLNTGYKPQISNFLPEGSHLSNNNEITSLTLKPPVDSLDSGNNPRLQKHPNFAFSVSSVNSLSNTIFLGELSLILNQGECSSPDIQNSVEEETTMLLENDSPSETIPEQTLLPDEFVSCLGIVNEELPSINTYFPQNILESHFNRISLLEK
Put plainly: IL-23R reporter gene assay (HEK-blue IL23 reporter gene cell line, rhIL23 stimulation). Type of experiment: cell-based. The note with it: Inhibition of IL-23R, rhIL23 1 ng/mL, 24 hours. On the procedure:
2. IL-23R reporter gene assay
The purpose of this assay was to assess the ability of compounds to inhibit the binding of IL23p19 to IL23R in a reporter gene system. The HEK-blue IL23 reporter gene cell line (Invivogen, hkb-il23) was cultured in DMEM + 10% FBS + 100 ug/mL Normocin medium. When the cell density reached 80%-90%, 5000 cells/well were plated into a 384-well plate, and the plate was incubated overnight at 37°C with 5% CO2. Then, the compound stock solution was diluted in DMSO, and 40 nL of the dilution was transferred into the 384-well culture plate by Echo. The plate was incubated at 37°C with 5% CO2 for 0.5 hours. 40 nL/well of rhIL23 (R&D, 1290-IL) was added to the 384-well cell culture plate at a final concentration of 1 ng/mL, and the plate was incubated at 37°C with 5% CO2 for 24 hours. 18 µL of Quanti-Blue™ solution was added to a new 384-well plate. 2 µL/well of cell culture supernatant was transferred into the 384-well plate prepared in Step 6, and the plate was incubated at 37°C with 5% CO2 for 1 hour. Absorbance values at […] were read on BMG. The binding ability of the compounds was assessed using the following formula, and IC50 values were obtained by fitting with Graphpad.
as §1
The calculation formula of IC50 was as follows: Y = Bottom + (Top−Bottom)/(1+10^(∧)((LogIC50−X)*HillSlope)) [formula] • where X: concentration of compound; and • Y: inhibition rate of compound Table 2. Inhibition of IL-23R by test compounds

Sequence of (Homo sapiens, UniProt Q5VWK5) (Q9NPF7 20-189 partner, other chains not shown): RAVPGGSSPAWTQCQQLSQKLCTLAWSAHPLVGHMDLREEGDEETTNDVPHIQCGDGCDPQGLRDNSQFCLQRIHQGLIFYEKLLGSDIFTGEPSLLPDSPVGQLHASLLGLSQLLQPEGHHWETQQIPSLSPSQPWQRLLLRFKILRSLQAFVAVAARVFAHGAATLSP
Sequence of (Homo sapiens, UniProt Q5VWK5) (P29460 23-328 partner, other chains not shown): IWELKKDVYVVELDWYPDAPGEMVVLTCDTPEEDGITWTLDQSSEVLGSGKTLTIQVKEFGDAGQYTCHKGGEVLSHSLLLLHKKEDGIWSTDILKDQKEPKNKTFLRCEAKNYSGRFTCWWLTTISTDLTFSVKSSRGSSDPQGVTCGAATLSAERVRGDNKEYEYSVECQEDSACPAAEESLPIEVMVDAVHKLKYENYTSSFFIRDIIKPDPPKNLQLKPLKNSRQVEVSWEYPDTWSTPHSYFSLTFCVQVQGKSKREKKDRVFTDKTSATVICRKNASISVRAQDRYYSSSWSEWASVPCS

Take `CC(=O)N[C@H]1CC(=O)NCC[C@@H](C(=O)N[C@@H](Cc2ccc(OCCN)cc2)C(=O)N[C@@H](Cc2ccc3ccccc3c2)C(=O)NC2(C(=O)N[C@@H](CCC(=O)O)C(=O)N[C@@H](CC(N)=O)C(=O)N[C@@H](Cc3cccnc3)C(=O)N(C)CC(N)=O)CCOCC2)NC(=O)[C@H](CCC(N)=O)NC(=O)[C@H](Cc2c[nH]c3c(C)cccc23)NC(=O)[C@H]([C@@H](C)O)NC(=O)[C@H](Cc2c[nH]cn2)NC1=O` [Compound 22] (Ac-DHT[Trp(7-Me)]Q[Dab][AEF][2Nal][Thp]EN[3Pal][Sar]-NH2; lactam 1-6): the IC50 in experiment [1] amounted to 0.129 nM; in experiment [2], 0.0157 nM.

In the case of `CC(=O)NCCCC[C@@H]1NC(=O)[C@H](Cc2c[nH]c3c(C)cccc23)NC(=O)[C@H]([C@@H](C)O)NC(=O)[C@H](Cc2c[nH]cn2)NC(=O)[C@@H](NC(C)=O)C(C)(C)SSC(C)(C)[C@@H](C(=O)N[C@@H](Cc2ccc(OCCN)cc2)C(=O)N[C@@H](Cc2ccc3ccccc3c2)C(=O)NC2(C(=O)N[C@@H](CCC(=O)O)C(=O)N[C@@H](CC(N)=O)C(=O)N[C@@H](Cc3cccnc3)C(=O)N(C)CC(N)=O)CCOCC2)NC1=O` [Compound 3] (Ac-[Pen]HT[Trp(7-Me)]K(Ac)[Pen][AEF][2Nal][Thp]EN[3Pal][Sar]-NH2; disulfide 1-6), the IC50 in experiment [1] was determined as 0.174 nM; in experiment [3], 1.36 nM; in experiment [2] it was 0.0066 nM.

In the case of `CC(=O)N[C@@H]1C(=O)N[C@@H](Cc2c[nH]cn2)C(=O)N[C@@H]([C@@H](C)O)C(=O)N[C@@H](Cc2c[nH]c3c(C)cccc23)C(=O)N[C@@H](CCC(N)=O)C(=O)N[C@H](C(=O)N[C@@H](Cc2ccc(OCCN)c3c2CCC3)C(=O)N[C@@H](Cc2ccc3ccccc3c2)C(=O)NC2(C(=O)N[C@@H](CCC(=O)O)C(=O)N[C@@H](CC(N)=O)C(=O)N[C@@H](Cc3cccnc3)C(=O)N(C)CC(N)=O)CCS(=O)(=O)CC2)C(C)(C)SSC1(C)C` [Compound 15] (Ac-[Pen]HT[Trp(7-Me)]Q[Pen][Phe(4-OC2H4NH2,2,3-(CH2)3)][2Nal][Thp(SO2)]EN[3Pal][Sar]-NH2; disulfide 1-6), the IC50 in experiment [1] was determined as 0.075 nM; in experiment [3] it was 5.26 nM; in experiment [2], 0.0062 nM.

In the case of `CC(=O)N[C@@H]1C(=O)N[C@@H](Cc2c[nH]cn2)C(=O)N[C@@H]([C@@H](C)O)C(=O)N[C@@H](Cc2c[nH]c3c(C)cccc23)C(=O)N[C@@H](CCC(N)=O)C(=O)N[C@H](C(=O)N[C@@H](Cc2ccc(OCCN)cc2)C(=O)N[C@@H](Cc2ccc3ccccc3c2)C(=O)NC2(C(=O)N[C@@H](CCC(=O)O)C(=O)N[C@@H](CC(N)=O)C(=O)N[C@@H](Cc3cccnc3)C(=O)N(C)CC(N)=O)CCOCC2)C(C)(C)SSC1(C)C` [Compound 1] (Ac-[Pen]HT[Trp(7-Me)]Q[Pen][AEF][2Nal][Thp]EN[3Pal][Sar]-NH2; disulfide 1-6), the IC50 in experiment [1] was determined as 0.0642 nM; in experiment [3], 1.1 nM; in experiment [2] it was 0.0071 nM.

Turning to `CC(=O)N[C@@H]1C(=O)N[C@@H](Cc2c[nH]cn2)C(=O)N[C@@H]([C@@H](C)O)C(=O)N[C@@H](Cc2c[nH]c3c(C4CC4)cccc23)C(=O)N[C@@H](CCC(N)=O)C(=O)N[C@H](C(=O)N[C@@H](Cc2ccc(OCCN)cc2)C(=O)N[C@@H](Cc2ccc3ccccc3c2)C(=O)NC2(C(=O)N[C@@H](CCC(=O)O)C(=O)N[C@@H](CC(N)=O)C(=O)N[C@@H](Cc3cccnc3)C(=O)N(C)CC(N)=O)CCOCC2)C(C)(C)SSC1(C)C` [Compound 13] (Ac-[Pen]HT[Trp(7-cPr)]Q[Pen][AEF][2Nal][Thp]EN[3Pal][Sar]-NH2; disulfide 1-6), the figures for the IC50 in experiment [1], in experiment [3] and in experiment [2] were 0.0384 nM, 3.12 nM and 0.001 nM, respectively.

As for `CC(=O)N[C@@H]1C(=O)N[C@@H](Cc2c[nH]cn2)C(=O)N[C@@H]([C@@H](C)O)C(=O)N[C@@H](Cc2c[nH]c3c(C)cccc23)C(=O)N[C@@H](CCCNC(N)=O)C(=O)N[C@H](C(=O)N[C@@H](Cc2ccc(OCCN)cc2)C(=O)N[C@@H](Cc2ccc3ccccc3c2)C(=O)NC2(C(=O)N[C@@H](CCC(=O)O)C(=O)N[C@@H](CC(N)=O)C(=O)N[C@@H](Cc3cccnc3)C(=O)N(C)CC(N)=O)CCOCC2)C(C)(C)SSC1(C)C` [Compound 2] (Ac-[Pen]HT[Trp(7-Me)][Cit][Pen][AEF][2Nal][Thp]EN[3Pal][Sar]-NH2; disulfide 1-6), the IC50 in experiment [1] stood at 0.0768 nM; in experiment [3], 1.21 nM; in experiment [2] it was 0.0068 nM.

(Values after patent EP4729529A1, “PREPARATION OF PEPTIDE INHIBITOR OF INTERLEUKIN-23 RECEPTOR AND USE THEREOF” (Xizang Haisco Pharmaceutical Co., Ltd., priority 2023, dated 2024).)
